Source: patent US20120172379A1, “4 SUBSTITUTED PYRAZOLOPYRIMIDINES” (VERTEX PHARMACEUTICALS INCORPORATED, priority 2009, published 2012)
pKi: −log10 of the molar value.

What was measured:
Assay type in all cases: biochemical
PKC alpha kinase = PKC alpha kinase (Homo sapiens, UniProt P17252); assay: PKC Alpha coupled-enzyme kinase assay (NADH consumption, absorbance at 340 nm); conditions: 4.5 nM PKC alpha kinase, 130 μM ATP, 150 μM substrate peptide, 100 μM CaCl2, 30° C.
Procedure: An assay buffer solution was prepared which consisted of 100 mM HEPES (pH 7.5), 10 mM MgCl2, 25 mM NaCl, 0.1 mM EDTA, 100 μM CaCl2 and 0.01% Brij. An enzyme buffer containing reagents to final assay concentrations of 0.002% Triton X-100, 100 μg/mL Phosphatidylserine, 20 μg/mL Diacylglycerol, 360 μM NADH, 3 mM phosphoenolpyruvate, 70 μg/mL pyruvate kinase, 24 μg/mL lactate dehydrogenase, 2 mM DTT, 150 μM substrate peptide (RRRRRKGSFKRKA SEQ ID NO. 3) and 4.5 nM PKC alpha kinase was prepared in assay buffer. To 16 μL of this enzyme buffer, in a 384 well plate, was added 1 μL of VRT stock solution in DMSO. The mixture was allowed to equilibrate for 10 mins at 30° C. The enzyme reaction was initiated by the addition of 16 μL stock ATP solution prepared in assay buffer to a final assay concentration of 130 μM. Initial rate data was determined from the rate of change of absorbance at 340 nm (corresponding to stoichiometric consumption of NADH) using a Molecular Devices Spectramax plate reader (Sunnyvale, Calif.) over 15 mins at 30° C. For each Ki determination 12 data points covering the VRT concentration range of 0-20 μM were obtained in duplicate (DMSO stocks were prepared from an initial 10 mM VRT stock with subsequent 1:2 serial dilutions). Ki values were calculated from initial rate data by non-linear regression using the Prism software package (Prism 4.0a, Graphpad Software, San Diego, Calif.).

PKC theta kinase = PKC theta kinase (Homo sapiens, UniProt Q04759); assay: PKC Theta coupled-enzyme kinase assay (NADH consumption, absorbance at 340 nm); conditions: 18 nM PKC theta kinase, 240 μM ATP, 100 μM substrate peptide, 30° C.
Chain of PKC theta kinase (Q04759 whole entry): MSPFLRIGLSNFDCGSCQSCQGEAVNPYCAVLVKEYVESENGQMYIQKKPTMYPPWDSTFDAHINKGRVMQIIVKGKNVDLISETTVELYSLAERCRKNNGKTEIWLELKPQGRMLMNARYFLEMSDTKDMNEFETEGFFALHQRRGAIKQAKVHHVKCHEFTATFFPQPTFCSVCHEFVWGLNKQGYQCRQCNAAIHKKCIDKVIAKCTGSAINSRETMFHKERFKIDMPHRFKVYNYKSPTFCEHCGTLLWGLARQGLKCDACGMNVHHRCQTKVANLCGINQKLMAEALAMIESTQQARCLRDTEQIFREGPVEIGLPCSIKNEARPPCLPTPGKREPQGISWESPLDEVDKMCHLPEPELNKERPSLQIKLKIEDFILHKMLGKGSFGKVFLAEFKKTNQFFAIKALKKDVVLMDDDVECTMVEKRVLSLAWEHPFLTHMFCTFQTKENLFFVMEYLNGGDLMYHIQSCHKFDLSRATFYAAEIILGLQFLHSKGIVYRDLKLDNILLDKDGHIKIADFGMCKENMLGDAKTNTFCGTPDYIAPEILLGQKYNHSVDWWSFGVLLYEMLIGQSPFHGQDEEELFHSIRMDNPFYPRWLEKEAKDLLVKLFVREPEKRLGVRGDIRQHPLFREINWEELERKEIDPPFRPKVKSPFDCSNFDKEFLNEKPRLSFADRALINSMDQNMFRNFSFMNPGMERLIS
Procedure: An assay buffer solution was prepared which consisted of 100 mM HEPES (pH 7.5), 10 mM MgCl2, 25 mM NaCl, 0.1 mM EDTA and 0.01% Brij. An enzyme buffer containing reagents to final assay concentrations of 0.00001% Triton X-100, 200 μg/mL Phosphatidylserine, 20 μg/mL Diacylglycerol, 360 μM NADH, 3 mM phosphoenolpyruvate, 70 μg/mL pyruvate kinase, 24 μg/mL lactate dehydrogenase, 2 mM DTT, 100 μM substrate peptide (ERMRPRKRQGSVRRRV SEQ ID NO. 1) and 18 nM PKC theta kinase was prepared in assay buffer. To 60 μL of this enzyme buffer, in a 384 well plate, was added 2 μL of VRT stock solution in DMSO. The mixture was allowed to equilibrate for 10 mins at 30° C. The enzyme reaction was initiated by the addition of 5 μL stock ATP solution prepared in assay buffer to a final assay concentration of 240 μM. Initial rate data was determined from the rate of change of absorbance at 340 nm (corresponding to stoichiometric consumption of NADH) using a Molecular Devices Spectramax plate reader (Sunnyvale, Calif.) over 15 mins at 30° C. For each Ki determination 12 data points covering the VRT concentration range of 0-20 μM were obtained in duplicate (DMSO stocks were prepared from an initial 10 mM VRT stock with subsequent 1:2 serial dilutions). Ki values were calculated from initial rate data by non-linear regression using the Prism software package (Prism 4.0a, Graphpad Software, San Diego, Calif.). […] 1.25 D>2.8 μM.

PKC delta kinase = PKC delta kinase (Homo sapiens, UniProt Q05655); assay: PKC Delta coupled-enzyme kinase assay (NADH consumption, absorbance at 340 nm); conditions: 46 nM PKC delta kinase, ATP final assay concentration of 150, 150 μM substrate peptide, 30° C.
Chain of PKC delta kinase (Q05655 whole entry): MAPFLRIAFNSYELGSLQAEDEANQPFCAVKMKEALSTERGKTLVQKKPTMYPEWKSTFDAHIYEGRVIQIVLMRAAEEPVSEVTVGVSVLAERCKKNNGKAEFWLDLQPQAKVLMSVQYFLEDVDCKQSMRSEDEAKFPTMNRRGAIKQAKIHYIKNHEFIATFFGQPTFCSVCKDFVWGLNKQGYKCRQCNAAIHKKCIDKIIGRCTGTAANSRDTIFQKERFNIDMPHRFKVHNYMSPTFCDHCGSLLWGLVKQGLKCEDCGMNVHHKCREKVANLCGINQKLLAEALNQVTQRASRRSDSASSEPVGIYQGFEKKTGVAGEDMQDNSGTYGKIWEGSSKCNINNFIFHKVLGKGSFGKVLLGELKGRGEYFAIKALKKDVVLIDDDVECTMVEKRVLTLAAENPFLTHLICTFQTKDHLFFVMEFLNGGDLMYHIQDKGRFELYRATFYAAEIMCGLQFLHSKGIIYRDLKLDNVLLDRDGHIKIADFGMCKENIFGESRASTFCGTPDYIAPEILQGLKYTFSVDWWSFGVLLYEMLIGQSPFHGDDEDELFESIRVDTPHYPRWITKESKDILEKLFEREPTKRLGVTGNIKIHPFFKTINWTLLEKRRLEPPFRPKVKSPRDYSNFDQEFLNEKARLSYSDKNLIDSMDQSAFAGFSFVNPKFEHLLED
Procedure: An assay buffer solution was prepared which consisted of 100 mM HEPES (pH 7.5), 10 mM MgCl2, 25 mM NaCl, 0.1 mM EDTA and 0.01% Brij. An enzyme buffer containing reagents to final assay concentrations of 0.002% Triton X-100, 200 μg/mL Phosphatidylserine, 20 μg/mL Diacylglycerol; 360 μM NADH, 3 mM phosphoenolpyruvate, 70 μg/mL pyruvate kinase, 24 μg/mL lactate dehydrogenase, 2 mM DTT, 150 μM substrate peptide (ERMRPRKRQGSVRRRV SEQ ID NO. 2) and 46 nM PKC delta kinase was prepared in assay buffer. To 16 μL of this enzyme buffer, in a 384 well plate, was added 1 μL of VRT stock solution in DMSO. The mixture was allowed to equilibrate for 10 mins at 30° C. The enzyme reaction was initiated by the addition of 16 μL stock ATP solution prepared in assay buffer to a final assay concentration of 150 Initial rate data was determined from the rate of change of absorbance at 340 nm (corresponding to stoichiometric consumption of NADH) using a Molecular Devices Spectramax plate reader (Sunnyvale, Calif.) over 15 mins at 30° C. For each Ki determination 12 data points covering the VRT concentration range of 0-20 μM were obtained in duplicate (DMSO stocks were prepared from an initial 10 mM VRT stock with subsequent 1:2 serial dilutions). Ki values were calculated from initial rate data by non-linear regression using the Prism software package (Prism 4.0a, Graphpad Software, San Diego, Calif.).

Cc1n[nH]c2ncnc(-c3cccc(C4(C#N)CC4)c3)c12 [Compound 4]
pKi (PKC alpha kinase): < 5.90 | pKi (PKC theta kinase): > 7.30 | pKi (PKC delta kinase): < 5.90

N#CC1(c2cccc(-c3ncnc4[nH]ncc34)c2)CC1 [Compound 3, 1-(3-(1H-pyrazolo[3,4-d]pyrimidin-4-yl)phenyl)cyclopropane carbonitrile]
pKi (PKC alpha kinase): < 5.90 | pKi (PKC theta kinase): > 7.30 | pKi (PKC delta kinase): 5.55 to 6.30

N#CC1(c2cccc(-c3ncnc4[nH]nc(C5CC5)c34)c2)CC1 [Compound 1, 1-(3-(3-cyclopropyl-1H-pyrazolo[3,4-d]pyrimidin-4-yl)phenyl)cyclopropanecarbonitrile]
pKi (PKC alpha kinase): < 5.90 | pKi (PKC theta kinase): 6.30 to 7.30 | pKi (PKC delta kinase): < 5.90

Cc1n[nH]c2ncnc(-c3cccc(C4(CN)CC4)c3)c12 [Compound 6]
pKi (PKC alpha kinase): < 5.90 | pKi (PKC theta kinase): 6.30 to 7.30 | pKi (PKC delta kinase): 5.55 to 6.30

NC(=O)C1(c2cccc(-c3ncnc4[nH]nc(C(F)(F)F)c34)c2)CC1 [Compound 7, 1-(3-(3-(trifluoromethyl)-1H-pyrazolo[3,4-d]pyrimidin-4-yl)phenyl)cyclopropanecarboxamide]
pKi (PKC alpha kinase): < 5.90 | pKi (PKC theta kinase): < 6.15 | pKi (PKC delta kinase): < 5.90

CCc1n[nH]c2ncnc(-c3cccc(C4(C#N)CC4)c3)c12 [Compound 2]
pKi (PKC alpha kinase): < 5.90 | pKi (PKC theta kinase): > 7.30

CCc1n[nH]c2ncnc(-c3cc(F)cc(C4(CN)CCC4)c3)c12 [Compound 8, (1-(3-(3-ethyl-1H-pyrazolo[3,4-d]pyrimidin-4-yl)-5-fluorophenyl)cyclobutyl)methanamine]
pKi (PKC alpha kinase): 6.30 to 7.30 | pKi (PKC theta kinase): > 7.30 | pKi (PKC delta kinase): 6.30 to 7.30

CCc1n[nH]c2ncnc(-c3cccc(C4(CN)CC4)c3)c12 [Compound 5, (1-(3-(3-ethyl-1H-pyrazolo[3,4-d]pyrimidin-4-yl)phenyl)cyclopropyl)methanamine]
pKi (PKC alpha kinase): 5.55 to 6.30 | pKi (PKC theta kinase): > 7.30 | pKi (PKC delta kinase): 6.30 to 7.30
